Tested on: C57BL/6 mice
Assay: In vivo acute toxicity assay, substance given alone (serum biochemistry, kidney histology)
Method: Animals. A total of 48 male C57BL/6 mice weighing 25-30 g purchased from the Instituto de Salud Pública (ISP), were used. Animal housing and experiment protocols were approved by the University of Talca in adherence to Conicyt experimental animal administrative regulations. All groups were maintained at a constant temperature (22±1° C.) on a 12-h light/12-h dark cycle (lights-on at 08:00 a.m.) and had free access to food and water.
Animal experimental design. […] Animals were euthanized 48 h later and blood samples were collected from the heart for the assessment of serum urea, creatinine, Lactate Deshidrogenase (LDH), Uric Acid and Calcium
Examination of nephrotoxicity. Mice were anaesthetized with sodium pentobarbitone and blood samples were collected from the heart and the kidneys were removed. Serum levels of urea, creatinine, LDH, Uric Acid and Calcium were determined using commercially available kits according to the protocols provided by Valtek (Valtek Diagnostic, Nuñoa, Chile). Left kidneys were fixed in 10% neutral buffered formaldehyde, embedded in paraffin wax and automatically processed. Sections (3 μm in thickness) of the embedded tissue were stained with hematoxylin-eosin for observation under light microscope.
Statistical analysis. The in vitro data were obtained from at least three independent experiments with three replicates, and all data are expressed as mean±SD. Experimental groups were compared using a one-way analysis of variance (ANOVA) followed by Scheffé's test when the data were normally distributed and by the Kruskal-Wallis test when they were not normally distributed. p-Values <0.05 were considered significant. Statistical tests were performed using GraphPad Prism 5 software, version 5.0 for Mac OS X.

[1] = substance alone ip (UO2 5 mg/kg of uranium; G4-Lys-Fmoc-Cbz 16 mg/kg; G5-Cou 40 mg/kg; EDTA 75 mg/kg), serum 48 h

Structure (SMILES): CC(=O)O.CC(=O)O.O.O.[O]=[U]=[O] [UO2^−, UO2(CH3COO)2.2H2O]
- concentration of creatinine (UO2 alone, 5 mg/kg of uranium ip, serum 48 h): 1.7±0.5
- Calcium [1]: 8.8 ± 0.57 mg/dL
- Urea [1]: 226.3 ± 39.4 mg/dL
- Uric Acid [1]: 2.5 ± 0.39 mg/dL
- kidney histology (hematoxylin-eosin) (substance alone ip, 48 h): irreversible damage with necrosis
- LDH (wide spectre toxicity indicator) (substance alone ip, serum 48 h): induced a significant increase of the enzyme
